The NIST ThermoML archive (doi:10.1016/j.jct.2016.01.021)
± gives the expanded uncertainty stated by the source.

Columns and labels:
[1] = 100 kPa, Liquid; for viscosity: Capillary tube (Ostwald / Ubbelohde) method; for mass density: Vibrating tube method
[2] = xn = mol fraction of the nth substance listed; conditions: 100 kPa, Liquid, x1 = 1; for viscosity: Capillary tube (Ostwald / Ubbelohde) method; for mass density: Vibrating tube method

Row | Structure (SMILES) | viscosity ([1]; 298.15 K) | mass density ([1]; 298.15 K) | viscosity ([1]; 303.15 K) | mass density ([1]; 303.15 K) | viscosity ([1]; 308.15 K) | mass density ([1]; 308.15 K) | viscosity ([1]; 313.15 K) | mass density ([1]; 313.15 K) | viscosity ([1]; 318.15 K) | mass density ([1]; 318.15 K) | viscosity ([1]; 323.15 K) | mass density ([1]; 323.15 K) | viscosity ([2]; 298.15 K) | mass density ([2]; 298.15 K) | viscosity ([2]; 303.15 K) | mass density ([2]; 303.15 K) | viscosity ([2]; 308.15 K) | mass density ([2]; 308.15 K) | viscosity ([2]; 313.15 K) | mass density ([2]; 313.15 K) | also measured
1 | CCCCCCCCCCCC(=O)OCC [ethyl dodecanoate] | 3.015 ± 0.064 mPa·s | 858.19 ± 0.83 kg/m3 | 2.704 ± 0.057 mPa·s | 854.3 ± 0.83 kg/m3 | 2.439 ± 0.052 mPa·s | 850.4 ± 0.83 kg/m3 | 2.213 ± 0.047 mPa·s | 846.5 ± 0.83 kg/m3 | 2.016 ± 0.043 mPa·s | 842.6 ± 0.83 kg/m3 | 1.846 ± 0.039 mPa·s | 838.7 ± 0.83 kg/m3 | – | – | – | – | – | – | – | – | –
2 | CCCCCCCCCCCCCCCC [hexadecane] | 3.085 ± 0.066 mPa·s | 769.92 ± 0.83 kg/m3 | 2.756 ± 0.059 mPa·s | 766.51 ± 0.83 kg/m3 | 2.478 ± 0.053 mPa·s | 763.06 ± 0.83 kg/m3 | 2.239 ± 0.048 mPa·s | 759.6 ± 0.83 kg/m3 | 2.034 ± 0.043 mPa·s | 756.14 ± 0.83 kg/m3 | 1.857 ± 0.04 mPa·s | 752.68 ± 0.83 kg/m3 | – | – | – | – | – | – | – | – | –
3 | CCCCCCCCCCCCCCCC [hexadecane] + CCCCCCCC(=O)OCC | – | – | – | – | – | – | – | – | – | – | – | – | 3.085 ± 0.066 mPa·s | 769.92 ± 0.83 kg/m3 | 2.756 ± 0.059 mPa·s | 766.51 ± 0.83 kg/m3 | 2.478 ± 0.053 mPa·s | 763.06 ± 0.83 kg/m3 | 2.239 ± 0.048 mPa·s | 759.6 ± 0.83 kg/m3 | viscosity ([2]; 318.15 K): 2.034 ± 0.043 mPa·s; mass density ([2]; 318.15 K): 756.14 ± 0.83 kg/m3; viscosity ([2]; 323.15 K): 1.857 ± 0.04 mPa·s; mass density ([2]; 323.15 K): 752.68 ± 0.83 kg/m3
4 | CCCCCCCC(=O)OCC [ethyl octanoate] | 1.428 ± 0.03 mPa·s | 862.64 ± 0.83 kg/m3 | 1.313 ± 0.028 mPa·s | 858.34 ± 0.83 kg/m3 | 1.211 ± 0.026 mPa·s | 854.04 ± 0.83 kg/m3 | 1.121 ± 0.024 mPa·s | 849.72 ± 0.83 kg/m3 | 1.042 ± 0.022 mPa·s | 845.39 ± 0.83 kg/m3 | 0.971 ± 0.021 mPa·s | 841.06 ± 0.83 kg/m3 | – | – | – | – | – | – | – | – | –
5 | CCCCCCCCCCCCCCCC [hexadecane] + CCCCCCCCCC(=O)OCC | – | – | – | – | – | – | – | – | – | – | – | – | 3.085 ± 0.066 mPa·s | 769.92 ± 0.83 kg/m3 | 2.756 ± 0.059 mPa·s | 766.51 ± 0.83 kg/m3 | 2.478 ± 0.053 mPa·s | 763.06 ± 0.83 kg/m3 | 2.239 ± 0.048 mPa·s | 759.6 ± 0.83 kg/m3 | viscosity ([2]; 318.15 K): 2.034 ± 0.043 mPa·s; mass density ([2]; 318.15 K): 756.14 ± 0.83 kg/m3; viscosity ([2]; 323.15 K): 1.857 ± 0.04 mPa·s; mass density ([2]; 323.15 K): 752.68 ± 0.83 kg/m3
6 | CCCCCCCCCCCCCCCC [hexadecane] + CCCCCCCCCCCC(=O)OCC | – | – | – | – | – | – | – | – | – | – | – | – | 3.085 ± 0.066 mPa·s | 769.92 ± 0.83 kg/m3 | 2.756 ± 0.059 mPa·s | 766.51 ± 0.83 kg/m3 | 2.478 ± 0.053 mPa·s | 763.06 ± 0.83 kg/m3 | 2.239 ± 0.048 mPa·s | 759.6 ± 0.83 kg/m3 | viscosity ([2]; 318.15 K): 2.034 ± 0.043 mPa·s; mass density ([2]; 318.15 K): 756.14 ± 0.83 kg/m3; viscosity ([2]; 323.15 K): 1.857 ± 0.04 mPa·s; mass density ([2]; 323.15 K): 752.68 ± 0.83 kg/m3
7 | CCCCCCCCCC(=O)OCC [ethyl decanoate] | 2.115 ± 0.045 mPa·s | 860.05 ± 0.83 kg/m3 | 1.919 ± 0.041 mPa·s | 855.99 ± 0.83 kg/m3 | 1.75 ± 0.037 mPa·s | 851.92 ± 0.83 kg/m3 | 1.603 ± 0.034 mPa·s | 847.85 ± 0.83 kg/m3 | 1.474 ± 0.031 mPa·s | 843.77 ± 0.83 kg/m3 | 1.362 ± 0.029 mPa·s | 839.69 ± 0.83 kg/m3 | – | – | – | – | – | – | – | – | –
